These results are taken from patent US12667572B2, “Tricyclic compounds useful in the treatment of cancer, autoimmune and inflammatory disorders” (SCHRÖDINGER, INC., priority 2021, dated 2026).

For experiment [1], the target named is T1, full-length MALT1 protein His-MALT1(1-824) (Homo sapiens, UniProt Q9UDY8).
T1 construct: full-length MALT1 protein His-MALT1(1-824); His (N); made in house; host or cells: baculovirus-infected insect cells
T1 sequence (Q9UDY8 1-824): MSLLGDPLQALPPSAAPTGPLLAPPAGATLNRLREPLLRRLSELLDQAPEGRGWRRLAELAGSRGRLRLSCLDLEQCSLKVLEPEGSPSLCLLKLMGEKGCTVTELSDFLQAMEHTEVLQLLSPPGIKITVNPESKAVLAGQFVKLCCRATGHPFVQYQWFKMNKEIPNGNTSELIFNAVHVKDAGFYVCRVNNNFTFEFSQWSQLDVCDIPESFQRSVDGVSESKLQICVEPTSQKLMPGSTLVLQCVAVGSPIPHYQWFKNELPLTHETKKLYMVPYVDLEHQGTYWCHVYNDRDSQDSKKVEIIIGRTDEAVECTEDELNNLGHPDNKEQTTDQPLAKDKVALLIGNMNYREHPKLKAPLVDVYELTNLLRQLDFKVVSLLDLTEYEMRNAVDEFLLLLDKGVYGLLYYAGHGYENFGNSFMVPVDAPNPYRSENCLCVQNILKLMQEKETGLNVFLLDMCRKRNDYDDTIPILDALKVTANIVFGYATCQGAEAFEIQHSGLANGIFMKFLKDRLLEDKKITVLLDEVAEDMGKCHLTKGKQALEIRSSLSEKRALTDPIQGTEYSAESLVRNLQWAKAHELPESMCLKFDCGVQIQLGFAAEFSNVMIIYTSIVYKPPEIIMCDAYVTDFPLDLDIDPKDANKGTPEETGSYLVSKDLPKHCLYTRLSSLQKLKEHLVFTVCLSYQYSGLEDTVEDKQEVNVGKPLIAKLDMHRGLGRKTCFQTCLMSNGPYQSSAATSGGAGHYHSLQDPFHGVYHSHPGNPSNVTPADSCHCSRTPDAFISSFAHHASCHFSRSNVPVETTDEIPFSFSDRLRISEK
The experiment in a line: MALT1 protease assay, Assay 1 (2 nM MALT1, Ac-LRSR-AMC substrate). Format: biochemical. The following applies: 2 nM MALT1, 50 μM Ac-LRSR-AMC, 2 h pre-incubation, 8 hr incubation at RT. How it is done:
MALT1 protease activity was assessed in an in vitro assay using a tetrapeptide as substrate and full-length MALT1 protein His-MALT1(1-824) purified from baculovirus-infected insect cells. The tetrapeptide substrate is Ac-LRSR-AMC (SM Biochemicals) with Km measured at around 100 μM.
The final assay buffer includes 1 nM (Assay 2) or 2 nM (Assay 1) of MALT1 full-length protein, 50 μM Ac-LRSR-AMC substrate, 50 mM Tris pH 7.5, 600 mM Sodium Citrate, 1 mM DTT, 1 mM EDTA, and 0.05% BSA in 384-well plate format using black microtiter square well plates (Optiplate 384-F, Perkin Elmer).
Test compounds were dissolved in 100% DMSO at stock of 10 mM, with final DMSO concentration 0.1%. Test compounds were pre-incubated with MALT1 protein for 2 h at room temperature. Substrate was added after the pre-incubation and fluorescence signal was measured using Envision at excitation 355 nm and emission 460 nm after 8 hr incubation at RT. Increase in the assay signal was linear over this period and proportional with increase in the enzyme content.
The fluorescence units were transformed to percentage of remaining activity by using the high control (HC, median of fluorescence signal from wells containing MALT1 protein, substrate, and DMSO) and low control (LC, median of fluorescence signal from wells with substrate only) with the formula below: […]
IC50 and Hill coefficients were obtained using Graph Pad Prism (Graph Pad software, Inc, USA) with non-linear regression analysis.

Experiment [2] concerns the target T1, full-length MALT1 protein His-MALT1(1-824). In words: MALT1 protease assay, Assay 2 (1 nM MALT1, Ac-LRSR-AMC substrate). Format: biochemical. The following applies: 1 nM MALT1, 50 μM Ac-LRSR-AMC, 2 h pre-incubation, 8 hr incubation at RT. In outline: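 Full-length His-MALT1(1-824) from baculovirus-infected insect cells, pre-incubated with compound 2 h at RT (0.1% DMSO). Then 50 μM Ac-LRSR-AMC added. Buffer was Tris pH 7.5 with 600 mM sodium citrate, DTT, EDTA and BSA. Fluorescence (ex 355/em 460 nm) was read after 8 h at RT and normalized to high/low controls. IC50 from non-linear regression.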

A word on the IC50: it is the concentration that inhibits the measured activity by half. Molecule `CC1(C)C[C@H](C(=O)Nc2cnc(N3CCCC3)c(Cl)c2)c2cnc3cc(Cl)nn3c21` (single isomer, unassigned) [Example 17, 2-chloro-N-(5-chloro-6-(pyrrolidin-1-yl)pyridin-3-yl)-8,8-dimethyl-7,8-dihydro-6H-cyclopenta[e]pyrazolo[1,5-a]pyrimidine-6-carboxamide] gave a half-inhibitory concentration (IC50) in experiment [1] of 10 to 100 nM. The same measure, in the same setting: the same measure for `CC1(C)C[C@@H](C(=O)Nc2cnc([C@H]3CCCO3)c(Cl)c2)c2cnc3cc(Cl)nn3c21` (single isomer, unassigned) [Example 27, 2-chloro-N-(5-chloro-6-(tetrahydrofuran-2-yl)pyridin-3-yl)-8,8-dimethyl-7,8-dihydro-6H-cyclopenta[e]pyrazolo[1,5-a]pyrimidine-6-carboxamide]: not below 1000 nM. For the molecule `CC1(C)CC(C(=O)Nc2cnc(-n3nccn3)c(Cl)c2)c2ccc3cc(O)nn3c21` (stereo not drawn) [Example 41, N-(5-chloro-6-(2H-1,2,3-triazol-2-yl)pyridin-3-yl)-2-hydroxy-8,8-dimethyl-7,8-dihydro-6H-cyclopenta[e]pyrazolo[1,5-a]pyridine-6-carboxamide], in experiment [1], the IC50 lay within 100 to 1000 nM.

For the molecule `CC1(C)C[C@@H](C(=O)Nc2cnc([C@@H]3CCCO3)c(Cl)c2)c2cnc3cc(Cl)nn3c21` (single isomer, unassigned) [Example 26, 2-chloro-N-(5-chloro-6-(tetrahydrofuran-2-yl)pyridin-3-yl)-8,8-dimethyl-7,8-dihydro-6H-cyclopenta[e]pyrazolo[1,5-a]pyrimidine-6-carboxamide], the IC50 in experiment [1] was not below 1000 nM.

In experiment [1], `CC1(C)C[C@@H](C(=O)Nc2cnc(-n3cccn3)c(Cl)c2)c2cnc3cc(Cl)nn3c21` (single isomer, unassigned) [Example 12, 2-chloro-N-(5-chloro-6-(1H-pyrazol-1-yl)pyridin-3-yl)-8,8-dimethyl-7,8-dihydro-6H-cyclopenta[e]pyrazolo[1,5-a]pyrimidine-6-carboxamide] returned an IC50 not below 1000 nM.

As to `CCc1cc2ncc3c(n2n1)C(C)(C)C[C@H]3C(=O)Nc1cnc(-n2nccn2)c(Cl)c1` (single isomer, unassigned) [Example 20, N-(5-chloro-6-(2H-1,2,3-triazol-2-yl)pyridin-3-yl)-2-ethyl-8,8-dimethyl-7,8-dihydro-6H-cyclopenta[e]pyrazolo[1,5-a]pyrimidine-6-carboxamide], the IC50 in experiment [1] is not below 1000 nM.

`CC1(C)CC[C@@H](C(=O)Nc2cnc(-n3nccn3)c(Cl)c2)c2cnc3cc(Cl)nn3c21` (single isomer, unassigned) [Example 8, 2-chloro-N-(5-chloro-6-(2H-1,2,3-triazol-2-yl)pyridin-3-yl)-9,9-dimethyl-6,7,8,9-tetrahydropyrazolo[1,5-a]quinazoline-6-carboxamide] came in with an IC50 in experiment [1] not below 1000 nM. Same read-out and setting: the value for `CC1(C)C[C@H](C(=O)Nc2cnc([C@@H]3CCCO3)c(Cl)c2)c2cnc3cc(Cl)nn3c21` (single isomer, unassigned) [Example 28, 2-chloro-N-(5-chloro-6-(tetrahydrofuran-2-yl)pyridin-3-yl)-8,8-dimethyl-7,8-dihydro-6H-cyclopenta[e]pyrazolo[1,5-a]pyrimidine-6-carboxamide] was 100 to 1000 nM. As to `CC1(C)OC(C(=O)Nc2cnc(-n3nccn3)c(Cl)c2)c2cnc3cc(Cl)nn3c21` (single isomer, unassigned) [Example 70, 2-chloro-N-(5-chloro-6-(2H-1,2,3-triazol-2-yl)pyridin-3-yl)-8,8-dimethyl-6,8-dihydrofuro[3,4-e]pyrazolo[1,5-a]pyrimidine-6-carboxamide], in experiment [2], the IC50 is not below 1000 nM. On the same count and under the same terms, the same measure for `CC1(C)CC(C(=O)Nc2cnc(N3CCCC3=O)c(Cl)c2)c2cnc3cc(F)nn3c21` (stereo not drawn) [Example 175, N-(5-chloro-6-(2-oxopyrrolidin-1-yl)pyridin-3-yl)-2-fluoro-8,8-dimethyl-7,8-dihydro-6H-cyclopenta[e]pyrazolo[1,5-a]pyrimidine-6-carboxamide]: not below 1000 nM; for `CCO[C@@]1(C(F)(F)F)C[C@H](C(=O)Nc2cnc(-n3nccn3)c(Cl)c2)c2cnc3cc(Cl)nn3c21` (single isomer, unassigned) [Example 168, (trans)-2-chloro-N-(5-chloro-6-(2H-1,2,3-triazol-2-yl)pyridin-3-yl)-8-ethoxy-8-(trifluoromethyl)-7,8-dihydro-6H-cyclopenta[e]pyrazolo[1,5-a]pyrimidine-6-carboxamide]: 100 to 1000 nM.

On to `C[C@@H](O)c1cnn(-c2ncc(NC(=O)[C@@H]3CC4(CCC4)c4c3cnc3cc(Cl)nn43)cc2Cl)n1` (single isomer, unassigned) [Example 161], for which the IC50 in experiment [2] was not below 1000 nM. The same measure, in the same setting: the same measure for `C[C@@H](O)c1cnn(-c2ncc(NC(=O)[C@@H]3CC(C)(C)c4c3cnc3cc(Cl)nn43)cc2Cl)n1` (single isomer, unassigned) [Example 52, 2-chloro-N-(5-chloro-6-(4-(1-hydroxyethyl)-2H-1,2,3-triazol-2-yl)pyridin-3-yl)-8,8-dimethyl-7,8-dihydro-6H-cyclopenta[e]pyrazolo[1,5-a]pyrimidine-6-carboxamide]: 100 to 1000 nM. Same read-out and setting: the same measure for `O=C(Nc1cnc(-n2nccn2)c(C(F)(F)F)c1)[C@H]1C[C@]2(CCO2)c2c1cnc1cc(Cl)nn21` (racemic) [Example 117, (cis)-N-(6-(2H-1,2,3-triazol-2-yl)-5˜(trifluoromethyl)pyridin-3-yl)-2-chloro-6,7-dihydrospiro[cyclopenta[e]pyrazolo[1,5-a]pyrimidine-8,2′-oxetane]-6-carboxamide]: 10 to 100 nM; for `O=C(Nc1cnc(-n2nccn2)c(Cl)c1)[C@@H]1CC2(CC2)c2c1cnc1cc(F)nn21` (single isomer, unassigned) [Example 94, N-(5-chloro-6-(2H-1,2,3-triazol-2-yl)pyridin-3-yl)-2-fluoro-6,7-dihydrospiro[cyclopenta[e]pyrazolo[1,5-a]pyrimidine-8,1′-cyclopropane]-6-carboxamide]: 10 to 100 nM. For `CC1(C)CC(C(=O)Nc2cnc(N3CCC3=O)c(Cl)c2)c2cnc3cc(F)nn3c21` (stereo not drawn) [Example 176, N-(5-chloro-6-(2-oxoazetidin-1-yl)pyridin-3-yl)-2-fluoro-8,8-dimethyl-7,8-dihydro-6H-cyclopenta[e]pyrazolo[1,5-a]pyrimidine-6-carboxamide], the half-maximal inhibitory concentration (IC50) in experiment [2] was in the range of 100 to 1000 nM. The same measure, in the same setting: the same measure for `Cn1nnc(-c2ncc(NC(=O)[C@@H]3CC(C)(C)c4c3cnc3cc(Cl)nn43)cc2Cl)n1` (single isomer, unassigned) [Example 142, 2-chloro-N-(5-chloro-6-(2-methyl-2H-tetrazol-5-yl)pyridin-3-yl)-8,8-dimethyl-7,8-dihydro-6H-cyclopenta[e]pyrazolo[1,5-a]pyrimidine-6-carboxamide]: not below 1000 nM. On the same count and under the same terms, the value for `Cc1cc2c(F)cc3c(n2n1)C(C)(C)CC3C(=O)Nc1cnc(-n2nccn2)c(Cl)c1` (stereo not drawn) [Example 171, N-(5-chloro-6-(2H-1,2,3-triazol-2-yl)pyridin-3-yl)-4-fluoro-2,8,8-trimethyl-7,8-dihydro-6H-cyclopenta[e]pyrazolo[1,5-a]pyridine-6-carboxamide] was 10 to 100 nM.
